Like-named read-outs stand apart in the source and are kept apart here. Blank lines part the entries; values can stand above or below the compound they belong to.
Assays:
MV-4-11 cells = test: Antiproliferative activity against MV-4-11 cells (CellTiter-Glo, 72 h); type: cell-based; conditions: Homo sapiens, MV4-11, MV-4-11 cells
Method: MV411 cells in the logarithmic growth phase were diluted in a medium (RPMI+10% FBS) and plated at 5,000 cells/well in 96-well whole black plates (WHB) with 50 μL/well. After plating, the plates were incubated in an incubator at 5% CO2 and 37° C. for 24 h before the compounds were added. The compounds were prepared into a 10 mM stock solution in DMSO and diluted in a culture medium to the desired concentrations (a final DMSO concentration of 0.2%). […] The plates were incubated at 5% CO2 and 37° C. for 72 h. After the incubation was complete, the plates were equilibrated at room temperature for 30 min. CellTiter-Glo® Reagent (Promega G7573) was added at 100 μL/well. The plates were shaken for 12 min on a microplate shaker. The luminescence value was measured at room temperature by the GloMax navigator (Promega GM2010).

GSPT1 protein = biological target: T1, GSPT1 protein (Homo sapiens, UniProt P15170); test: Degradation of GSPT1 protein in NB-4 cells (Western blot); type: cell-based; conditions: for inhibition at 1 µM: NB-4 cells, compound 1 μM, 6 h, read-out: GSPT1 degradation
T1 construct: The whole cell lysate was prepared using a RIPA lysis buffer; endogenous in cells; host or cells: NB-4 cells
T1 sequence (P15170 whole entry): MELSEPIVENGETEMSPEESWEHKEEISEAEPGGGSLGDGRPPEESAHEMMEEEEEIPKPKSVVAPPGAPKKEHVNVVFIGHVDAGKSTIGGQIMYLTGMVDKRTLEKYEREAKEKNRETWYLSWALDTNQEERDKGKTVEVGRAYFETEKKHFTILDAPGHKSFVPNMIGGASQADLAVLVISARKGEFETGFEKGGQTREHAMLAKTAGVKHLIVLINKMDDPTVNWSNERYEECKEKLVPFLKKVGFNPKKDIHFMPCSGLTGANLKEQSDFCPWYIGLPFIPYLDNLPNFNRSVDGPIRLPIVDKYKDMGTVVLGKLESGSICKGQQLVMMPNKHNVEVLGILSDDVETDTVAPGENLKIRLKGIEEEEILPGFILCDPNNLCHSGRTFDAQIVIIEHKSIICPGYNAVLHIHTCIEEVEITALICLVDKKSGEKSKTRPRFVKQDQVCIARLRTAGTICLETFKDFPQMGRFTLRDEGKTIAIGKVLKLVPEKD
Method: 150 μL of DMSO and the compounds (1 μM) were added, and the mixture was incubated in an incubator at 5% CO2 and 37° C. for 6 h. The cells were centrifuged, and the culture medium was discarded. PBS was added for washing and then discarded. The whole cell lysate was prepared using a RIPA lysis buffer containing a protease inhibitor cocktail and a phosphatase inhibitor, and incubated on ice for 30 min. The mixture was centrifuged, and the cell debris was discarded. The whole cell lysate supernatant was collected and transferred to a fresh EP tube. Samples were prepared using a loading buffer after a BCA protein assay. The samples were incubated in a metal bath at 100° C. for 10 min.
The samples were electrophoretically separated from proteins on a 4-20% precast gel (SDS-PAGE gel), transferred to a PVDF membrane, blocked with 5% NFDM/TBST for 1 h at room temperature, co-incubated overnight at 4° C. with the primary antibody, and co-incubated for 2 h at room temperature with the secondary antibody on the next day. The signals were detected on the […]™ imaging system.

[1] = 72 h, read-out: Antiproliferative activity IC50

- IC50 (MV-4-11 cells; [1]): 0.001 to 0.01 µM
- inhibition at 1 µM (GSPT1 protein): > 80%
Compound: O=C1CCC(N2Cc3c(ccc(CNC(=O)c4cc5cc(Cl)ccc5o4)c3F)C2=O)C(=O)N1 (stereo not shown) [FDAB-47]

- IC50 (MV-4-11 cells; [1]): > 1 µM
- inhibition at 1 µM (GSPT1 protein): < 25%
Compound: O=C1CCC(N2Cc3c(ccc(CNC(=O)c4ccc(F)cc4)c3F)C2=O)C(=O)N1 (stereo not shown) [FDAB-49]

- IC50 (MV-4-11 cells; [1]): < 0.001 µM
- inhibition at 1 µM (GSPT1 protein): > 80%
Compound: CCCCOc1ccc(CC(=O)NCc2ccc3c(c2F)CN(C2CCC(=O)NC2=O)C3=O)cc1 (stereo not shown) [FDAB-132]

- IC50 (MV-4-11 cells; [1]): 0.01 to 0.1 µM
- inhibition at 1 µM (GSPT1 protein): 50 to 80%
Compound: CC(=O)c1ccc(C(=O)NCc2ccc3c(c2F)CN(C2CCC(=O)NC2=O)C3=O)cc1 (stereo not shown) [FDAB-99]

- IC50 (MV-4-11 cells; [1]): > 1 µM
- inhibition at 1 µM (GSPT1 protein): < 25%
Compound: Cc1cccc(C(=O)NCc2ccc3c(c2F)CN(C2CCC(=O)NC2=O)C3=O)c1 (stereo not shown) [FDAB-89]

- IC50 (MV-4-11 cells; [1]): < 0.001 µM
- inhibition at 1 µM (GSPT1 protein): > 80%
Compound: O=C(C#Cc1cccc(O)c1)NCc1ccc2c(c1F)CN(C1CCC(=O)NC1=O)C2=O (stereo not shown) [FDAB-146]

- IC50 (MV-4-11 cells; [1]): > 1 µM
- inhibition at 1 µM (GSPT1 protein): < 25%
Compound: N#Cc1cc(C(=O)NCc2ccc3c(c2F)CN(C2CCC(=O)NC2=O)C3=O)ccc1Cl (stereo not shown) [FDAB-82]

- IC50 (MV-4-11 cells; [1]): 0.001 to 0.01 µM
- inhibition at 1 µM (GSPT1 protein): > 80%
Compound: O=C(Cc1c[nH]c2cccc(Br)c12)NCc1ccc2c(c1F)CN(C1CCC(=O)NC1=O)C2=O (stereo not shown) [FDAB-135]

The next lines start with the compound.

Compound: O=C(CCSC(=S)SCc1ccccc1)NCc1ccc2c(c1F)CN(C1CCC(=O)NC1=O)C2=O (stereo not shown) [FDAB-161]
- IC50 (MV-4-11 cells; [1]): < 0.001 µM
- inhibition at 1 µM (GSPT1 protein): > 80%

Compound: O=C1CCC(N2Cc3cc(CNC(=O)c4ccc(Cl)cc4)ccc3C2=O)C(=O)N1 (stereo not shown) [reference compound]
- IC50 (MV-4-11 cells; read-out: IC50 against MV-4-11 cell proliferation): 0.103 µM
- degradation of GSPT1 protein (GSPT1 protein; co-incubated for 6 h with NB-4 cells): 65%

Compound: Cc1nc2cc(C(=O)NCc3cc4c(cc3F)C(=O)N(C3CCC(=O)NC3=O)C4)ccc2s1 (stereo not shown) [FDAB-58]
- IC50 (MV-4-11 cells; [1]): 0.01 to 0.1 µM
- inhibition at 1 µM (GSPT1 protein): > 80%

Compound: O=C1CCC(N2Cc3c(ccc(CNC(=O)c4ccc(Cl)cn4)c3Cl)C2=O)C(=O)N1 (stereo not shown) [FDAB-80]
- IC50 (MV-4-11 cells; [1]): > 1 µM
- inhibition at 1 µM (GSPT1 protein): < 25%

Compound: CS(=O)(=O)c1ccc(C(=O)NCc2ccc3c(c2F)CN(C2CCC(=O)NC2=O)C3=O)cc1 (stereo not shown) [FDAB-107]
- IC50 (MV-4-11 cells; [1]): > 1 µM
- inhibition at 1 µM (GSPT1 protein): < 25%

Compound: O=C1CCC(N2Cc3cc(CNC(=O)c4cc5ccccc5o4)c(Cl)cc3C2=O)C(=O)N1 (stereo not shown) [FDAB-71]
- IC50 (MV-4-11 cells; [1]): > 1 µM
- inhibition at 1 µM (GSPT1 protein): < 25%

Compound: O=C1CCC(N2Cc3cc(CNC(=O)c4cc5cc(Cl)ccc5o4)c(Cl)cc3C2=O)C(=O)N1 (stereo not shown) [FDAB-72]
- IC50 (MV-4-11 cells; [1]): > 1 µM
- inhibition at 1 µM (GSPT1 protein): < 25%

Compound: Cn1ccc2ccc(C(=O)NCc3cc4c(cc3F)C(=O)N(C3CCC(=O)NC3=O)C4)cc21 (stereo not shown) [FDAB-59]
- IC50 (MV-4-11 cells; [1]): > 1 µM
- inhibition at 1 µM (GSPT1 protein): > 80%

Compound: O=C1CCC(N2Cc3cc(CNC(=O)c4cncs4)c(F)cc3C2=O)C(=O)N1 (stereo not shown) [FDAB-44]
- IC50 (MV-4-11 cells; [1]): > 1 µM
- inhibition at 1 µM (GSPT1 protein): < 25%

Compound: O=C1CCC(N2Cc3c(ccc(CNC(=O)c4ccc5cc6ccccc6cc5c4)c3F)C2=O)C(=O)N1 (stereo not shown) [FDAB-87]
- IC50 (MV-4-11 cells; [1]): < 0.001 µM
- inhibition at 1 µM (GSPT1 protein): < 25%

Compound: O=C1CCC(N2Cc3cc(CNC(=O)c4nc5ccccc5s4)c(F)cc3C2=O)C(=O)N1 (stereo not shown) [FDAB-32]
- IC50 (MV-4-11 cells; [1]): 0.01 to 0.1 µM
- inhibition at 1 µM (GSPT1 protein): > 80%

Compound: O=C1CCC(N2Cc3c(ccc(CNC(=O)c4ccc(Cl)cc4)c3Cl)C2=O)C(=O)N1 (stereo not shown) [FDAB-70]
- IC50 (MV-4-11 cells; [1]): 0.1 to 1 µM
- inhibition at 1 µM (GSPT1 protein): 25 to 50%

Compound: O=C1CCC(N2Cc3cc(CNC(=O)c4ccc(Cl)c(O)c4)c(F)cc3C2=O)C(=O)N1 (stereo not shown) [FDAB-55]
- IC50 (MV-4-11 cells; [1]): 0.001 to 0.01 µM
- inhibition at 1 µM (GSPT1 protein): > 80%

Compound: O=C1CCC(N2Cc3c(ccc(CNC(=O)c4cc5cc(F)ccc5o4)c3Cl)C2=O)C(=O)N1 (stereo not shown) [FDAB-69]
- IC50 (MV-4-11 cells; [1]): 0.001 to 0.01 µM
- inhibition at 1 µM (GSPT1 protein): 50 to 80%

Compound: [2H]c1c([2H])c([2H])c(C(=O)NCc2ccc3c(c2F)CN(C2CCC(=O)NC2=O)C3=O)c([2H])c1[2H] (stereo not shown) [FDAB-88]
- IC50 (MV-4-11 cells; [1]): > 1 µM
- inhibition at 1 µM (GSPT1 protein): < 25%
